From US12383545B1, “Treatment of migraine” (priority 2018, dated 2025)

Experiments:
[1] = system: participants with episodic migraine; assay: Study A: Headache Impact Test (HIT-6); format: in vivo, human; details: for HIT-6 change from baseline to week 12, MMRM LS mean change (SE) / HIT-6 change from baseline to week 12, mean (SD) / HIT-6 score, Week 12, mean (SD): mITT
Experimental: In embodiments, the present disclosure provides a method for preventing migraine (such as a method for preventing migraine in patients having fewer than fifteen migraine days per month) wherein atogepant is administered in an amount of 10 mg QD, 30 mg QD, or 60 mg QD, wherein administration of atogepant results in a reduction in a 6-item Headache Impact Test (HIT-6) disability score relative to baseline. The Headache Impact Test (HIT-6) is a well-known tool for assessing migraine intensity, and uses six questions to measure the adverse impact of headache on, for example, social functioning, role functioning, vitality, cognitive functioning, and psychological distress. Responses are based on frequency using a 5-point verbal response scale ranging from “never” to “always”. The HIT-6 total score is the sum of the responses, and ranges from 36 to 78. See Yang et al., Validation of the Headache Impact Test (HIT-6™) Across Episodic and Chronic Migraine, Cephalalgia 2011 February; 31 (3): 357-367. In embodiments, treatment with atogepant results in a greater than five (≥5) point decrease in HIT-6 disability score.
The Headache Impact Test (HIT-6, completed monthly) represented an additional exploratory measure. The HIT-6 test is a well-known tool for assessing migraine intensity that uses six questions to capture the impact of headache and its treatment on an individual's functional health and well-being. HIT-6 was completed monthly and was evaluated as the change from baseline in HIT-6 total score at weeks 4, 8, and 12.

ALT or AST = assay: Study B: postbaseline hepatic laboratory parameters (ALT or AST, potential Hy's Law); format: in vivo, human; details: atogepant 60 mg QD or standard of care, safety population
Source text: Cases of alanine aminotransferase/aspartate aminotransferase (ALT/AST) levels ≥3 times the upper limit of normal were reported for 2.4% of participants (n=13/531) treated with atogepant and 3.2% for standard-of-care (n=6/190). No cases of potential Hy's Law were reported. Table 24 provides postbaseline hepatic laboratory parameter values of clinical interest for the safety population.

C[C@@H]1[C@H](c2c(F)ccc(F)c2F)C[C@H](NC(=O)c2cnc3c(c2)C[C@@]2(C3)C(=O)Nc3ncccc32)C(=O)N1CC(F)(F)F [atogepant]
HIT-6 change to week 12, LSMD vs placebo (95% CI) ([1]; 10 mg QD): −3.2
HIT-6 responders (≥5 point reduction), n/N (%) ([1]; 10 mg QD, Week 4): (48.6) %
HIT-6 responders, odds ratio vs. placebo (95% CI) ([1]; 10 mg QD, Week 4): 1.53
HIT-6 responders (≥5 point reduction), n/N (%) ([1]; 10 mg QD, Week 8): (60.4) %
HIT-6 responders, odds ratio vs. placebo (95% CI) ([1]; 10 mg QD, Week 8): 1.79
HIT-6 responders (≥5 point reduction), n/N (%) ([1]; 10 mg QD, Week 12): (64.5) %
HIT-6 responders, odds ratio vs. placebo (95% CI) ([1]; 10 mg QD, Week 12): 1.74
HIT-6 change from baseline to week 12, MMRM LS mean change (SE) ([1]; 10 mg QD): −8.4
HIT-6 change from baseline to week 12, mean (SD) ([1]; 10 mg QD): −8.3
HIT-6 score, Week 12, mean (SD) ([1]; 10 mg QD): 55.8
HIT-6 change to week 12, LSMD vs placebo (95% CI) ([1]; 30 mg QD): −2.9
HIT-6 responders (≥5 point reduction), n/N (%) ([1]; 30 mg QD, Week 4): (46.8) %
HIT-6 responders, odds ratio vs. placebo (95% CI) ([1]; 30 mg QD, Week 4): 1.43
HIT-6 responders (≥5 point reduction), n/N (%) ([1]; 30 mg QD, Week 8): (62.2) %
HIT-6 responders, odds ratio vs. placebo (95% CI) ([1]; 30 mg QD, Week 8): 1.95
HIT-6 responders (≥5 point reduction), n/N (%) ([1]; 30 mg QD, Week 12): (62.7) %
HIT-6 responders, odds ratio vs. placebo (95% CI) ([1]; 30 mg QD, Week 12): 1.54
HIT-6 change from baseline to week 12, MMRM LS mean change (SE) ([1]; 30 mg QD): −8.1
HIT-6 change from baseline to week 12, mean (SD) ([1]; 30 mg QD): −8.1
HIT-6 score, Week 12, mean (SD) ([1]; 30 mg QD): 56.1
HIT-6 change to week 12, LSMD vs placebo (95% CI) ([1]; 60 mg QD): −4.0
HIT-6 responders (≥5 point reduction), n/N (%) ([1]; 60 mg QD, Week 4): (56.2) %
HIT-6 responders, odds ratio vs. placebo (95% CI) ([1]; 60 mg QD, Week 4): 2.18
HIT-6 responders (≥5 point reduction), n/N (%) ([1]; 60 mg QD, Week 8): (64.7) %
HIT-6 responders, odds ratio vs. placebo (95% CI) ([1]; 60 mg QD, Week 8): 2.25
HIT-6 responders (≥5 point reduction), n/N (%) ([1]; 60 mg QD, Week 12): (65.2) %
HIT-6 responders, odds ratio vs. placebo (95% CI) ([1]; 60 mg QD, Week 12): 1.77
HIT-6 change from baseline to week 12, MMRM LS mean change (SE) ([1]; 60 mg QD): −9.2
HIT-6 change from baseline to week 12, mean (SD) ([1]; 60 mg QD): −9.9
HIT-6 score, Week 12, mean (SD) ([1]; 60 mg QD): 54.5
Potential Hy's Law (ALT or AST ≥ 3 × ULN and Bilirubin Total ≥ 2 × ULN and ALP < 2 × ULN), n/N1 (%) (ALT or AST): (0.0) %
ALT or AST ≥1 × ULN, n/N1 (%) (ALT or AST; postbaseline): (21.1) %
ALT or AST ≥1.5 × ULN, n/N1 (%) (ALT or AST; postbaseline): (8.7) %
ALT or AST ≥2 × ULN, n/N1 (%) (ALT or AST; postbaseline): (4.9) %
ALT or AST ≥3 × ULN, n/N1 (%) (ALT or AST; postbaseline): 2.4%
ALT or AST ≥5 × ULN, n/N1 (%) (ALT or AST; postbaseline): (1.3) %
ALT or AST ≥10 × ULN, n/N1 (%) (ALT or AST; postbaseline): (0.6) %
ALT or AST ≥20 × ULN, n/N1 (%) (ALT or AST; postbaseline): (0.0) %
ALT or AST ≥3 × ULN, n/N1 (%) (ALT or AST; postbaseline, listed as Atogepant): (2.4) %
